# How the values were obtained:
# [1] = Ratio of drug uptake in putamen to cerebellum in anesthetized cynomolgus monkey after 155 mins postinjection; type: ADME, organism-based, Macaca fascicularis; conditions: in vivo
# [2] = Drug uptake in anesthetized cynomolgus monkey brain frontal lobe after 75 mins postinjection; type: ADME, organism-based, Macaca fascicularis; conditions: in vivo, 1.25 h
# [3] = Ratio of drug uptake in caudate to cerebellum in anesthetized cynomolgus monkey after 0.5 mins postinjection; type: ADME, organism-based, Macaca fascicularis; conditions: in vivo
# Caudate [4] = assay: Drug uptake in anesthetized cynomolgus monkey brain caudate after 225 mins postinjection; type: ADME, organism-based, Macaca fascicularis, Caudate nucleus; conditions: in vivo, 3.75 h
# Midbrain [5] = assay: Drug uptake in anesthetized cynomolgus monkey brain midbrain after 165 mins postinjection; type: ADME, organism-based, Macaca fascicularis; conditions: in vivo, 2.75 h
# [6] = Ratio of drug uptake in midbrain to cerebellum in anesthetized cynomolgus monkey after 18.5 mins postinjection; type: ADME, organism-based, Macaca fascicularis; conditions: in vivo
# Thalamus [7] = assay: Drug uptake in anesthetized cynomolgus monkey brain thalamus after 95 mins postinjection; type: ADME, organism-based, Macaca fascicularis; design: unit not given here; conditions: in vivo
# [8] = Drug uptake in anesthetized cynomolgus monkey brain frontal lobe after 12.5 mins postinjection; type: ADME, organism-based, Macaca fascicularis; conditions: in vivo
# Midbrain [9] = assay: Drug uptake in anesthetized cynomolgus monkey brain midbrain after 6.5 mins postinjection; type: ADME, organism-based, Macaca fascicularis; design: unit not given here; conditions: in vivo
# [10] = Ratio of drug uptake in midbrain to cerebellum in anesthetized cynomolgus monkey after 185 mins postinjection; type: ADME, organism-based, Macaca fascicularis; conditions: in vivo
# Pons [11] = assay: Drug uptake in anesthetized cynomolgus monkey brain pons after 1.5 mins postinjection; type: ADME, organism-based, Macaca fascicularis; conditions: in vivo, 0.025 h
# [12] = Ratio of drug uptake in pons to cerebellum in anesthetized cynomolgus monkey after 195 mins postinjection; type: ADME, organism-based, Macaca fascicularis; conditions: in vivo, 3.25 h
# Caudate [13] = assay: Drug uptake in anesthetized cynomolgus monkey brain caudate after 195 mins postinjection; type: ADME, organism-based, Macaca fascicularis, Caudate nucleus; conditions: in vivo, 3.25 h
# Thalamus [14] = assay: Drug uptake in anesthetized cynomolgus monkey brain thalamus after 22.5 mins postinjection; type: ADME, organism-based, Macaca fascicularis; design: unit not given here; conditions: in vivo, 0.375 h
# Pons [15] = assay: Drug uptake in anesthetized cynomolgus monkey brain pons after 45 mins postinjection; type: ADME, organism-based, Macaca fascicularis; conditions: in vivo, 0.75 h
# Medulla [16] = assay: Drug uptake in anesthetized cynomolgus monkey brain medulla after 225 mins postinjection; type: ADME, organism-based, Macaca fascicularis; conditions: in vivo, 3.75 h
# [17] = Drug uptake in anesthetized cynomolgus monkey brain cerebellum after 1.5 mins postinjection; type: ADME, organism-based, Macaca fascicularis; conditions: in vivo, 0.025 h
# Caudate [18] = assay: Drug uptake in anesthetized cynomolgus monkey brain caudate after 18.5 mins postinjection; type: ADME, organism-based, Macaca fascicularis, Caudate nucleus; conditions: in vivo
# [19] = Drug uptake in anesthetized cynomolgus monkey brain cerebellum after 0.5 mins postinjection; type: ADME, organism-based, Macaca fascicularis; conditions: in vivo
# [20] = Ratio of drug uptake in frontal lobe to cerebellum in anesthetized cynomolgus monkey after 125 mins postinjection; type: ADME, organism-based, Macaca fascicularis; conditions: in vivo
# Thalamus [21] = assay: Drug uptake in anesthetized cynomolgus monkey brain thalamus after 165 mins postinjection; type: ADME, organism-based, Macaca fascicularis; design: unit not given here; conditions: in vivo, 2.75 h
# Caudate [22] = assay: Drug uptake in anesthetized cynomolgus monkey brain caudate after 175 mins postinjection; type: ADME, organism-based, Macaca fascicularis, Caudate nucleus; conditions: in vivo
# [23] = Ratio of drug uptake in medulla to cerebellum in anesthetized cynomolgus monkey after 85 mins postinjection; type: ADME, organism-based, Macaca fascicularis; conditions: in vivo
# Thalamus [24] = assay: Drug uptake in anesthetized cynomolgus monkey brain thalamus after 3.5 mins postinjection; type: ADME, organism-based, Macaca fascicularis; design: unit not given here; conditions: in vivo
# Pons [25] = assay: Drug uptake in anesthetized cynomolgus monkey brain pons after 145 mins postinjection; type: ADME, organism-based, Macaca fascicularis; conditions: in vivo
# Medulla [26] = assay: Drug uptake in anesthetized cynomolgus monkey brain medulla after 1.5 mins postinjection; type: ADME, organism-based, Macaca fascicularis; conditions: in vivo, 0.025 h
# [27] = Ratio of drug uptake in pons to cerebellum in anesthetized cynomolgus monkey after 105 mins postinjection; type: ADME, organism-based, Macaca fascicularis; conditions: in vivo, 1.75 h
# Medulla [28] = assay: Drug uptake in anesthetized cynomolgus monkey brain medulla after 2.5 mins postinjection; type: ADME, organism-based, Macaca fascicularis; conditions: in vivo
# [29] = Drug uptake in anesthetized cynomolgus monkey brain cerebellum after 95 mins postinjection; type: ADME, organism-based, Macaca fascicularis; conditions: in vivo
# Medulla [30] = assay: Drug uptake in anesthetized cynomolgus monkey brain medulla after 135 mins postinjection; type: ADME, organism-based, Macaca fascicularis; conditions: in vivo, 2.25 h
# Midbrain [31] = assay: Drug uptake in anesthetized cynomolgus monkey brain midbrain after 12.5 mins postinjection; type: ADME, organism-based, Macaca fascicularis; design: unit not given here; conditions: in vivo
# Putamen [32] = assay: Drug uptake in anesthetized cynomolgus monkey brain putamen after 4.5 mins postinjection; type: ADME, organism-based, Macaca fascicularis; design: unit not given here; conditions: in vivo, 0.075 h
# Putamen [33] = assay: Drug uptake in anesthetized cynomolgus monkey brain putamen after 145 mins postinjection; type: ADME, organism-based, Macaca fascicularis; conditions: in vivo
# Caudate [34] = assay: Drug uptake in anesthetized cynomolgus monkey brain caudate after 145 mins postinjection; type: ADME, organism-based, Macaca fascicularis, Caudate nucleus; conditions: in vivo
# Thalamus [35] = assay: Drug uptake in anesthetized cynomolgus monkey brain thalamus after 1.5 mins postinjection; type: ADME, organism-based, Macaca fascicularis; conditions: in vivo, 0.025 h
# [36] = Drug uptake in anesthetized cynomolgus monkey brain frontal lobe after 45 mins postinjection; type: ADME, organism-based, Macaca fascicularis; conditions: in vivo, 0.75 h
# [37] = Drug uptake in anesthetized cynomolgus monkey brain frontal lobe after 95 mins postinjection; type: ADME, organism-based, Macaca fascicularis; conditions: in vivo
# [38] = Ratio of drug uptake in midbrain to cerebellum in anesthetized cynomolgus monkey after 9.5 mins postinjection; type: ADME, organism-based, Macaca fascicularis; conditions: in vivo
# [39] = Ratio of drug uptake in putamen to cerebellum in anesthetized cynomolgus monkey after 45 mins postinjection; type: ADME, organism-based, Macaca fascicularis; conditions: in vivo, 0.75 h
# [40] = Ratio of drug uptake in midbrain to cerebellum in anesthetized cynomolgus monkey after 235 mins postinjection; type: ADME, organism-based, Macaca fascicularis; conditions: in vivo
# Pons [41] = assay: Drug uptake in anesthetized cynomolgus monkey brain pons after 0.5 mins postinjection; type: ADME, organism-based, Macaca fascicularis; conditions: in vivo
# [42] = Drug uptake in anesthetized cynomolgus monkey brain occipital lobe after 45 mins postinjection; type: ADME, organism-based, Macaca fascicularis; conditions: in vivo, 0.75 h
# [43] = Ratio of drug uptake in midbrain to cerebellum in anesthetized cynomolgus monkey after 125 mins postinjection; type: ADME, organism-based, Macaca fascicularis; conditions: in vivo
# Medulla [44] = assay: Drug uptake in anesthetized cynomolgus monkey brain medulla after 115 mins postinjection; type: ADME, organism-based, Macaca fascicularis; conditions: in vivo
# [45] = Drug uptake in anesthetized cynomolgus monkey brain frontal lobe after 27.5 mins postinjection; type: ADME, organism-based, Macaca fascicularis; conditions: in vivo
# [46] = Ratio of drug uptake in pons to cerebellum in anesthetized cynomolgus monkey after 125 mins postinjection; type: ADME, organism-based, Macaca fascicularis; conditions: in vivo
# [47] = Ratio of drug uptake in thalamus to cerebellum in anesthetized cynomolgus monkey after 27.5 mins postinjection; type: ADME, organism-based, Macaca fascicularis; conditions: in vivo
# [48] = Drug uptake in anesthetized cynomolgus monkey brain cerebellum after 115 mins postinjection; type: ADME, organism-based, Macaca fascicularis; conditions: in vivo
# [49] = Ratio of drug uptake in midbrain to cerebellum in anesthetized cynomolgus monkey after 135 mins postinjection; type: ADME, organism-based, Macaca fascicularis; conditions: in vivo, 2.25 h
# Putamen [50] = assay: Drug uptake in anesthetized cynomolgus monkey brain putamen after 18.5 mins postinjection; type: ADME, organism-based, Macaca fascicularis; design: unit not given here; conditions: in vivo
# [51] = Ratio of drug uptake in pons to cerebellum in anesthetized cynomolgus monkey after 0.5 mins postinjection; type: ADME, organism-based, Macaca fascicularis; conditions: in vivo
# Thalamus [52] = assay: Drug uptake in anesthetized cynomolgus monkey brain thalamus after 195 mins postinjection; type: ADME, organism-based, Macaca fascicularis; conditions: in vivo, 3.25 h
# Midbrain [53] = assay: Drug uptake in anesthetized cynomolgus monkey brain midbrain after 65 mins postinjection; type: ADME, organism-based, Macaca fascicularis; design: unit not given here; conditions: in vivo
# Thalamus [54] = assay: Drug uptake in anesthetized cynomolgus monkey brain thalamus after 225 mins postinjection; type: ADME, organism-based, Macaca fascicularis; design: unit not given here; conditions: in vivo, 3.75 h
# Caudate [55] = assay: Drug uptake in anesthetized cynomolgus monkey brain caudate after 115 mins postinjection; type: ADME, organism-based, Macaca fascicularis, Caudate nucleus; conditions: in vivo
# Caudate [56] = assay: Drug uptake in anesthetized cynomolgus monkey brain caudate after 2.5 mins postinjection; type: ADME, organism-based, Macaca fascicularis, Caudate nucleus; conditions: in vivo
# Caudate [57] = assay: Drug uptake in anesthetized cynomolgus monkey brain caudate after 55 mins postinjection; type: ADME, organism-based, Macaca fascicularis, Caudate nucleus; conditions: in vivo
# [58] = Drug uptake in anesthetized cynomolgus monkey brain cerebellum after 175 mins postinjection; type: ADME, organism-based, Macaca fascicularis; conditions: in vivo
# Caudate [59] = assay: Drug uptake in anesthetized cynomolgus monkey brain caudate after 15.5 mins postinjection; type: ADME, organism-based, Macaca fascicularis, Caudate nucleus; conditions: in vivo
# [60] = Ratio of drug uptake in putamen to cerebellum in anesthetized cynomolgus monkey after 75 mins postinjection; type: ADME, organism-based, Macaca fascicularis; conditions: in vivo, 1.25 h
# Midbrain [61] = assay: Drug uptake in anesthetized cynomolgus monkey brain midbrain after 215 mins postinjection; type: ADME, organism-based, Macaca fascicularis; conditions: in vivo
# Pons [62] = assay: Drug uptake in anesthetized cynomolgus monkey brain pons after 105 mins postinjection; type: ADME, organism-based, Macaca fascicularis; conditions: in vivo, 1.75 h
# Medulla [63] = assay: Drug uptake in anesthetized cynomolgus monkey brain medulla after 95 mins postinjection; type: ADME, organism-based, Macaca fascicularis; conditions: in vivo
# [64] = Ratio of drug uptake in thalamus to cerebellum in anesthetized cynomolgus monkey after 135 mins postinjection; type: ADME, organism-based, Macaca fascicularis; conditions: in vivo, 2.25 h
# [65] = Drug uptake in anesthetized cynomolgus monkey brain occipital lobe after 1.5 mins postinjection; type: ADME, organism-based, Macaca fascicularis; conditions: in vivo, 0.025 h
# [66] = Drug uptake in anesthetized cynomolgus monkey brain frontal lobe after 195 mins postinjection; type: ADME, organism-based, Macaca fascicularis; conditions: in vivo, 3.25 h
# Pons [67] = assay: Drug uptake in anesthetized cynomolgus monkey brain pons after 75 mins postinjection; type: ADME, organism-based, Macaca fascicularis; conditions: in vivo, 1.25 h
compound,measurement,setting,value
O=C(OCC[18F])C1C2CCC(CC1c1cccc(/C=C\Br)c1)N2 (configuration not stated),Ratio,[1],1.8
same,Drug uptake,[2],2.86
same,Ratio,[3],0.9
same,Drug uptake,Caudate [4],2.93
same,Drug uptake,Midbrain [5],4.28
same,Ratio,[6],1.2
same,Drug uptake,Thalamus [7],4.31
same,Drug uptake,[8],2.27
same,Drug uptake,Midbrain [9],2.99
same,Ratio,[10],2.2
same,Drug uptake,Pons [11],0.09
same,Ratio,[12],2
same,Drug uptake,Caudate [13],3.08
same,Drug uptake,Thalamus [14],3.43
same,Drug uptake,Pons [15],4.45
same,Drug uptake,Medulla [16],2.67
same,Drug uptake,[17],0.06
same,Drug uptake,Caudate [18],2.8
same,Drug uptake,[19],0
same,Ratio,[20],1
same,Drug uptake,Thalamus [21],3.64
same,Drug uptake,Caudate [22],3.29
same,Ratio,[23],1.5
same,Drug uptake,Thalamus [24],0.67
same,Drug uptake,Pons [25],4.16
same,Drug uptake,Medulla [26],0.08
same,Ratio,[27],1.5
same,Drug uptake,Medulla [28],0.61
same,Drug uptake,[29],3.05
same,Drug uptake,Medulla [30],4.21
same,Drug uptake,Midbrain [31],3.83
same,Drug uptake,Putamen [32],1.72
same,Drug uptake,Putamen [33],4.21
same,Drug uptake,Caudate [34],3.52
same,Drug uptake,Thalamus [35],0.08
same,Drug uptake,[36],2.85
same,Drug uptake,[37],2.75
same,Ratio,[38],1.1
same,Ratio,[39],1.3
same,Ratio,[40],2.3
same,Drug uptake,Pons [41],0.01
same,Drug uptake,[42],3.55
same,Ratio,[43],1.8
same,Drug uptake,Medulla [44],4.28
same,Drug uptake,[45],2.69
same,Ratio,[46],1.6
same,Ratio,[47],1
same,Drug uptake,[48],2.78
same,Ratio,[49],1.9
same,Drug uptake,Putamen [50],4.37
same,Ratio,[51],3.8
same,Drug uptake,Thalamus [52],3.18
same,Drug uptake,Midbrain [53],5
same,Drug uptake,Thalamus [54],2.95
same,Drug uptake,Caudate [55],4.06
same,Drug uptake,Caudate [56],0.36
same,Drug uptake,Caudate [57],4.1
same,Drug uptake,[58],2.03
same,Drug uptake,Caudate [59],2.89
same,Ratio,[60],1.5
same,Drug uptake,Midbrain [61],3.76
same,Drug uptake,Pons [62],4.34
same,Drug uptake,Medulla [63],4.55
same,Ratio,[64],1.7
same,Drug uptake,[65],0.06
same,Drug uptake,[66],2.18
same,Drug uptake,Pons [67],4.51
